This passage reports IC50 and inhibition results from ChEMBL document CHEMBL4414614, “Phthalideisoquinoline Hemiacetal Alkaloids from Corydalis decumbens That Inhibit Spontaneous Calcium Oscillations, Including Alkyl Derivatives of (+)-Egenine That Are Strikingly Levorotatory” (J Nat Prod, 2019).

Holding throughout (format): functional
Assay [1] is described as follows: (§1) Inhibition of neuronal excitability in C57BL/6 mouse Neocortical neurons assessed as reduction in spontaneous calcium oscillation amplitude measured for 10 mins by Fluo-4 staining based FLIPR assay. The note with it: C57BL/6, 10 min.
The species entered for assay [2] is Mus musculus. The assay is described as §1.
The nature of assay [3]: (§2) Inhibition of neuronal excitability in C57BL/6 mouse Neocortical neurons assessed as effect on spontaneous calcium oscillation frequency measured for 10 mins by Fluo-4 staining based FLIPR assay. The settings on record: C57BL/6, 10 min.
For assay [4], the species on record is Mus musculus. Described as §2.

In general, IC50 refers to the concentration that inhibits the measured activity by half. As for `CCO[C@@H]1O[C@@H]([C@@H]2c3cc(OC)c(OC)cc3CCN2C)c2ccc3c(c21)OCO3`, the IC50 in assay [1] and in assay [3] was 10.2 µM each time. The inhibition result in the assay listed under Mus musculus [2] and in the assay filed under Mus musculus [4] was “Dose-dependent effect” each time.

Turning to `CCO[C@H]1O[C@@H]([C@@H]2c3cc4c(cc3CCN2C)OCO4)c2ccc3c(c21)OCO3`, the concentration for half-maximal inhibition (IC50) in assay [1] and in assay [3] was 8.3 µM throughout. For the same molecule, the inhibition result in the assay filed under Mus musculus [2] and in the assay filed under Mus musculus [4] was “Dose-dependent effect” throughout.

As for `CCO[C@@H]1O[C@@H]([C@@H]2c3cc4c(cc3CCN2C)OCO4)c2ccc3c(c21)OCO3`, the IC50 in assay [1] and in assay [3] was 3.1 µM each time. The inhibition result in the assay filed under Mus musculus [2] and in the assay filed under Mus musculus [4] was “Dose-dependent effect” each time.

`COc1cc2c(cc1OC)[C@@H]([C@@H]1O[C@H](O)c3c1ccc1c3OCO1)N(C)CC2`: the IC50 in assay [1] and in assay [3] was 11.6 µM in each case. For the same molecule, the inhibition result in the assay filed under Mus musculus [2] and in the assay listed under Mus musculus [4] was “Dose-dependent effect” each time.

As to `CO[C@H]1O[C@@H]([C@@H]2c3cc4c(cc3CCN2C)OCO4)c2ccc3c(c21)OCO3`, the IC50 in assay [1] and in assay [3] was 6.8 µM throughout. Besides, the inhibition entry in the assay listed under Mus musculus [2] and in the assay listed under Mus musculus [4] was “Dose-dependent effect” in each case.

In the case of `CO[C@@H]1O[C@@H]([C@@H]2c3cc4c(cc3CCN2C)OCO4)c2ccc3c(c21)OCO3`, the IC50 in assay [1] and in assay [3] was 5.6 µM each time. Besides, the inhibition result in the assay listed under Mus musculus [2] and in the assay listed under Mus musculus [4] was “Dose-dependent effect” throughout.
